The text below walks through data of patent US20140329863A1 (priority 2011, published 2014).

In brackets after ≈: the same amount, converted by molar mass. Like-named read-outs stand apart in the source and are kept apart here. Where only a bound is given, the exact number is not on record here.

For data set [1] the following is noted: […].
For data set [2] the following is noted: for solubility in FaSSIF (in words): fasted-state simulated intestinal fluid; for solubility at pH 2.0 (in words): pH 2 (HCl) buffer.
The nature of data set [3]: physchem.
Data set [4] in a line: in vitro. The settings on record: dog, MDCK-MDR1.
Data set [5] relates to P-gp (MDR1). Put plainly: in vitro. Particulars: dog, MDCK-MDR1.
The nature of data set [6]: Multidose (three-day) pharmacokinetics in liquid diet in FVB mice. The settings on record: for concentration at 3 days: FVB, mouse, in vivo.
Data set [7] in a line: Hepatic microsomal stability, dog. In kind it is in vitro ADME. Particulars: beagle, liver microsomes, pH 7.4. Here is the method:
These were diluted 500-fold into 1 mL of microsomal incubation mixture to yield a final concentration of 1 μM. The incubation mixture was composed of 100 mM phosphate buffer, pH 7.4, and NADPH regenerating system (BD Biosciences NADPH Regenerating System Solutions A & B). This mixture was preincubated at 37° C. for 5 min in an Eppendorf Thermo mixer, and the reaction initiated by addition of 0.5 mg (25 μl of a 20 mg/mL solution) of liver microsomes. Aliquots (100 μl) were withdrawn at 0, 5, 15, 30, and 60 min, and added to […] ACN containing internal standard. […] The percentage of solute remaining at the end of the incubation was used to determine species-specific values of scaled intrinsic clearance, hepatic clearance, and predicted hepatic extraction based upon the calculations below (Obach, 1999).
for which mg microsomal protein/gm liver was 45 for all species, and gm liver/kg body weight were 32 for dog, 88 for mouse, 40 for rat and 25 for human.
for which ER estimates the amount of compound cleared during a single pass through the liver (Low ER <0.3, moderate ER 0.3-0.7, high ER>0.7).
In general terms: Liver microsomes are vesicles of endoplasmic reticulum, rich in cytochrome P450 enzymes.

Data set [8] has as its system PrP^Sc in dividing ScN2a-c13 cells. Particulars: read-out: EC50 (ELISA), reduction of PrP^Sc load; dividing ScN2a-c13 cells. In general terms: ELISA stands for enzyme-linked immunosorbent assay.
Data set [9] in a line: Single-dose pharmacokinetics in FVB mice (oral gavage, IV). The settings on record: for Kp / Cmax / Tmax / AUC(0-t) / half-life / bioavailability: female, FVB, mouse.
[10] abbreviates: cell culture media, plasma or biological fluid.
Setting [11] is: pH 2 (HCl) buffer, pH 2, simulated gastric fluid.
[12] abbreviates: pH 7.4 (phosphate) buffer, pH 7.4, aqueous buffer.
The mark [13] stands for this setting: 40 mg/kg, Brain Concentration (Css), three-day dosing in liquid diet, brain.
[14] abbreviates: 40 mg/kg, Plasma Concentration (Css), three-day dosing in liquid diet, plasma.
[15] abbreviates: 80 mg/kg, Plasma Concentration (Css), three-day dosing in liquid diet, plasma.
Setting [16] is: 130 mg/kg, Brain Concentration (Css), three-day dosing in liquid diet, brain.
[17] abbreviates: 130 mg/kg, Plasma Concentration (Css), three-day dosing in liquid diet, plasma.
Where [18] appears, read: 210 mg/kg, Brain Concentration (Css), three-day dosing in liquid diet, brain.
[19] abbreviates: 210 mg/kg, Plasma Concentration (Css), three-day dosing in liquid diet, plasma.
Where [20] appears, read: Brain and plasma concentrations, 40, 80, 130 and 210 mg/kg/day for 3 days.
Setting [21] is: 80 mg/kg, Brain Concentration (Css), three-day dosing in liquid diet, brain.

As for `COc1ccc(-c2csc(Nc3ccc4ccccc4n3)n2)cc1OC` [IND47, [4-(3,4-Dimethoxy-phenyl)-thiazol-2-yl]-quinolin-2-yl-amine], the “hepatic extraction ratio (ER)” value in data set [1] is recorded as “lower to moderate”. For the same compound, the “solubility in FaSSIF (in words)” value in data set [2] is on record as “lower solubility”. In addition, the solubility (commonly how much of the substance goes into solution per volume) at pH 2.0 (in words) in [2] is on record as “lower solubility”. The solubility was 5 µM (≈ 1.82 µg/mL) in data set [3] (FaSSIF), 52 µM (≈ 18.9 µg/mL) in data set [3] (setting [10]), less than 1 µM in data set [3] (setting [11]) and less than 1 µM in [3] (setting [12]). Besides, the Papp A→B (in general, the apparent permeability from the apical to the basolateral side of a cell layer) in data set [4] stood at 9.2 ×10⁻⁶ cm/s. Besides, in [4], the Papp B→A (usually the apparent permeability from the basolateral to the apical side of a cell layer) stood at 8.9 ×10⁻⁶ cm/s. Further, in data set [5], the efflux ratio (commonly a quotient of directional permeabilities that is used to spot active efflux) was found to be 1. Besides, the concentration at 3 days worked out at 400 ± 280 nM in [6] (setting [13]); 130 ± 100 nM in data set [6] (setting [14]); 30 ± 20 nM in [6] (setting [15]); 400 ± 510 nM in data set [6] (setting [16]); 60 ± 20 nM in data set [6] (setting [17]); 230 ± 260 nM in data set [6] (setting [18]). In addition, the figures for the concentration at 3 days in data set [6] (setting [19]) and in data set [6] (setting [20]) were 120 ± 50 nM and not above 1000 nM, respectively.

In the case of `Cc1cccc(Nc2nc(-c3ccc(-c4ccccc4)cc3)cs2)n1` [IND24, (4-Biphenyl-4-yl-thiazol-2-yl)-(6-methyl-pyridin-2-yl)-amine], the half-life at 1 μM in [7] (female dog microsomes, read-out: t1/2 Dog Female) is 0.85 h; in [7] (male dog microsomes, * extrapolated, read-out: t1/2 Dog Male (extrapolated)), 2.33 h. The EC50 (as a rule, the midpoint of the concentration-response curve) in data set [8] stood at 1.27 µM. The “metabolic stability (in words)” value in [1] is recorded as “stable”. In data set [9] (PO 40 mg/kg, brain, female FVB mice), this compound gave an AUClast of 9998 ± 417 ng·h/g. Further, the Kp (usually the ratio of the level in a tissue or fluid to that in plasma or blood) in data set [9] (brain and plasma, po, 10 mg/kg) stood at 2.6; in data set [9] (brain/plasma, po, 40 mg/kg) it was 2.61. For the same compound, the Cmax – broadly, the maximum level reached in the sampled fluid or tissue – turned out to be 840 ± 252 ng/g in data set [9] (brain, po, 40 mg/kg); 856 ± 908 ng/mL in data set [9] (plasma, iv, 1 mg/kg); 569 ± 38.1 ng/mL in [9] (plasma, po, 40 mg/kg). In addition, the Tmax (as a rule, the time from dosing to the highest level) in data set [9] (brain, po, 40 mg/kg) is 4 h; in [9] (plasma, iv, 1 mg/kg), 0.083 h; in data set [9] (plasma, po, 40 mg/kg) it was 2 h. For the same compound, the AUC(0-t) (in general, exposure summed from dosing to a finite time, without extrapolation to infinity) in [9] (plasma, iv, 1 mg/kg) worked out at 953 ± 374 ng·h/mL; in data set [9] (plasma, po, 40 mg/kg), 3830 ± 450 ng·h/mL. Besides, the half-life in data set [9] (plasma, iv, 1 mg/kg, Half-life, 1 mg/kg IV, female FVB mice) was 2 h; in data set [9] (plasma, iv, 1 mg/kg, t1/2, IV 1 mg/kg, female FVB mice) it was 2.15 h; in [9] (plasma, po, 40 mg/kg, t1/2, PO 40 mg/kg, female FVB mice), 4.65 h. The bioavailability (usually the share of a dose that reaches the circulation, judged against a reference dose that is usually intravenous) in data set [9] (plasma, po, 10 mg/kg) is 40%; in [9] (plasma, po, 40 mg/kg), 40.2%. Also, the “Brain exposure (AUClast) ranking” value in data set [9] (single oral dose, FVB mice, brain) was “highest AUC values in brain”. For the same compound, the concentration at 3 days is 8700 ± 1460 nM in data set [6] (setting [13]); 8190 ± 8090 nM in data set [6] (setting [14]); 19300 ± 2280 nM in data set [6] (setting [21]); 5550 ± 1180 nM in [6] (setting [15]); 31800 ± 5460 nM in [6] (setting [16]); 11700 ± 4850 nM in data set [6] (setting [17]). Further, the concentration at 3 days in data set [6] (setting [18]) was found to be 37400 ± 9060 nM; in [6] (setting [19]), 18900 ± 20500 nM. In addition, in [6] (female FVB mice, 75 mg/kg, formulations containing 0.125-1.25% (v/v) PEG400), the Brain concentrations is more than 8000 nM.

For the compound `c1ccc2cc(Nc3nc(-c4ccncc4)cs3)ncc2c1` [IND85, Isoquinolin-3-yl-(4-pyridin-4-yl-thiazol-2-yl)-amine], the “hepatic extraction ratio (ER)” value in [1] is “higher”. In addition, the “solubility in FaSSIF (in words)” value in data set [2] is on record as “lower solubility”. Also, the “solubility at pH 2.0 (in words)” value in [2] is reported as “higher solubility”. For the same compound, the solubility in data set [3] (FaSSIF) was 3 µM (≈ 0.913 µg/mL); in data set [3] (setting [10]), 116 µM (≈ 35.3 µg/mL); in data set [3] (setting [11]) it was 196 µM (≈ 59.7 µg/mL); in data set [3] (setting [12]) it was less than 1 µM. Also, the Papp A→B in [4] is 3.03 ×10⁻⁶ cm/s. Further, the Papp B→A in data set [4] is 4.44 ×10⁻⁶ cm/s. In addition, the efflux ratio in data set [5] was found to be 1.5. Further, in [9] (single oral dose 40 mg/kg), the “Brain Cmax/EC50 ratio, 40 mg/kg” value was “better Cmax:EC50 ratio at either dose”. For the same compound, the concentration at 3 days is 20 ± 30 nM in data set [6] (setting [13]); 80 ± 30 nM in data set [6] (setting [21]); 40 ± 30 nM in [6] (setting [16]); 100 ± 70 nM in data set [6] (setting [18]); not above 1000 nM in [6] (setting [20]).

Take `Cc1ccc(Nc2nc(-c3cc(-c4ccccc4)no3)cs2)nc1` [IND33, (5-Methyl-pyridin-2-yl)-[4-(3-phenyl-isoxazol-5-yl)-thiazol-2-yl]-amine]: the “hepatic extraction ratio (ER)” value in [1] is reported as “lower to moderate”. In addition, the “solubility in FaSSIF (in words)” value in data set [2] is “higher solubility”. Also, the “solubility at pH 2.0 (in words)” value in data set [2] was “lower”. Moreover, the solubility in [3] (FaSSIF) was 70 µM (≈ 23.4 µg/mL); in data set [3] (setting [10]), 225 µM (≈ 75.2 µg/mL); in [3] (setting [11]), 1 µM (≈ 0.334 µg/mL); in data set [3] (setting [12]) it was less than 1 µM. Besides, the Papp A→B in data set [4] was 6.8 ×10⁻⁶ cm/s. For the same compound, the Papp B→A in data set [4] was determined as 8.3 ×10⁻⁶ cm/s. In addition, the efflux ratio in data set [5] amounted to 1.2. The concentration at 3 days in data set [6] (setting [13]) turned out to be 880 ± 680 nM; in data set [6] (setting [14]), 650 ± 380 nM; in [6] (setting [21]), 5390 ± 2930 nM; in data set [6] (setting [15]), 2850 ± 1300 nM; in data set [6] (setting [16]) it was 30000 nM; in data set [6] (setting [17]) it was 4740 ± 1310 nM. Besides, the concentration at 3 days is 12600 ± 8620 nM in data set [6] (setting [18]) and 14200 ± 2090 nM in [6] (setting [19]). The “Brain Concentration (Css), 130 mg/kg” value in data set [6] (three-day dosing in liquid diet, 130 mg/kg, brain) amounted to 23300 ± 13200 nM.

For `Cc1ccnc(Nc2nc(-c3ccncc3)cs2)c1` [IND52, (4-Methyl-pyridin-2-yl)-(4-pyridin-4-yl-thiazol-2-yl)-amine], the EC50 in data set [8] is 4.95 µM. For the same compound, in data set [1], the “hepatic extraction ratio (ER)” value is listed as “higher”. The solubility in data set [3] (FaSSIF) was 2 µM (≈ 0.537 µg/mL); in [3] (setting [10]) it was 76 µM (≈ 20.4 µg/mL); in data set [3] (setting [11]), 215 µM (≈ 57.7 µg/mL); in data set [3] (setting [12]), 1 µM (≈ 0.268 µg/mL). In addition, in data set [4], the Papp A→B is 36.2 ×10⁻⁶ cm/s. In data set [4], this compound came in with a Papp B→A of 48.7 ×10⁻⁶ cm/s. In data set [5], the efflux ratio turned out to be 1.3. Besides, the concentration at 3 days was found to be 10 ± 10 nM in data set [6] (setting [14]); 760 ± 1090 nM in [6] (setting [21]); 670 ± 1000 nM in [6] (setting [15]); 2340 ± 2130 nM in data set [6] (setting [16]); 1930 ± 1580 nM in [6] (setting [17]); 7650 ± 5570 nM in [6] (setting [18]). The compound further showed a concentration at 3 days in data set [6] (setting [19]) of 10900 ± 8440 nM. In addition, the “Brain Concentration (Css), 40 mg/kg” value in data set [6] (three-day dosing in liquid diet, 40 mg/kg, brain) was “no measurable brain concentrations”.
